Experimental data as given in publication PMC8518537, “N‐(Anilinoethyl)amide Melatonergic Ligands with Improved Water Solubility and Metabolic Stability” (Chemmedchem, 2021).
Values after ≈ are worked out from the molar mass of the structure shown. Read-outs that look alike come from different tables or passages of the source.

Tests used:
[1] = Experimental lipophilicity, shake-flask n-octanol/water; type: physicochemical; conditions: n-octanol/water (MOPS buffer); n-octanol/50 mM MOPS buffer pH 7.4, 25±1 °C; mean±SD of three; read-out: Log D oct,7.4
Experimental: Chosen buffer was 50 mM zwitterionic MOPS (3‐morpholinopropanesulfonic acid), pH 7.4 to avoid ionic couple partitioning, with ionic strength adjusted to 0.15 M by KCl addition. Compounds, after partitioning overnight, and dilution of both phases with methanol, were dosed in the HPLC‐UV system, as detailed below. Reported log D oct,7.4 values are the mean of three measurements±standard deviation.
HPLC columns were a RP‐C18 Supelco Discovery (Supelco, Bellefonte, PA, USA), 5 μm, 150×4.6 mm i.d. for all compounds except 13, and a Phenomenex Gemini, 5 μm, 150×4.6 mm i.d. for compound 13 (Phenomenex). Elution conditions were optimized for each compound at a flow rate of 1 mL min^−1 employing mobile phases consisting of water and acetonitrile at different percentages, while UV detection was set at λ = 254 nm. For compound 13, the mobile phase consisted of a 10 mM ammonium acetate buffer pH 7.0 and methanol and the UV detection was set at λ = 281 nm.

[2] = Metabolic stability in rat liver microsomes; type: in vitro ADME; conditions: for CLi Rat LM (intrinsic clearance) / half-life at 5 μM: rat liver microsomes 1 mg protein/mL, 5 μM compound, mean±SD; for CLi Rat LM (intrinsic clearance): 37 °C; for half-life at 5 μM: NADPH-regenerating system, pH 7.4, 37 °C, read-out: t 1/2 Rat LM
Experimental: (§1) Each compound (final concentration: 5 μM) was incubated in the presence of rat or human liver microsomes (final concentration: 1 mg protein/mL) and of a NADPH‐regenerating system (final concentrations: 2 mM NADP^+, 10 mM glucose‐6‐phosphate, 0.4 U mL^−1 glucose‐6‐phosphate dehydrogenase, 5 mM MgCl2) in a 10 mM Phosphate Buffered Saline (PBS) solution, pH 7.4, at 37 °C. Compound was added after a 10 min pre‐incubation at 37 °C and. at stated time points, depending on compound kinetics, sample aliquots were withdrawn, metabolic reaction was quenched by acetonitrile addition (1 : 2), and after a centrifugation step (9000 g, 10 min, 4 °C) the supernatant was analyzed by HPLC‐UV‐VIS.
(§2) Apparent half‐lives (t1/2 in min) for the metabolic clearance of compounds were calculated from the pseudo first‐order rate constants (k) obtained by linear regression of the log chromatographic peak area versus time plots and are reported as means of three experiments±standard deviation. Intrinsic clearance (CLi) values of the compounds were calculated using the following equation: CLi (μL×min^−1×mg protein^−1)=k×V where V (μL×mg protein^−1)=incubation volume/mg protein added.
(§3) Pooled rat and human liver microsomes (20 mg/mL) were supplied by BD Biosciences (BD Biosciences, Woburn, MA, USA). Acetonitrile and methanol were HPLC grade and were supplied by Sigma‐Aldrich (Sigma‐Aldrich srl, Milan, Italy). Water was freshly bidistilled before use. All other reagents were purchased in the highest purity available.
(§4) PeakSimple 2.83 software was employed for data acquisition and HPLC peak integration. HPLC columns were a RP‐C18 Supelco Discovery (Supelco, Bellefonte, PA, USA), 5 μm, 150×4.6 mm i.d. for all compounds except 13, and a Phenomenex Gemini, 5 μm, 150×4.6 mm i.d. for compound 13 (Phenomenex). Elution conditions were optimized for each compound at a flow rate of 1 mL min^−1 employing mobile phases consisting of water and acetonitrile at different percentages, while UV detection was set at λ = 254 nm. For compound 13, the mobile phase consisted of a 10 mM ammonium acetate buffer pH 7.0 and methanol and the UV detection was set at λ = 281 nm.

[3] = target: T1, human MT2 receptors (Homo sapiens, UniProt P49286); test: Radioligand binding, 2-[125I]iodomelatonin competition at MT2; conditions: cloned human MT2 in CHO cells; from IC50 by Cheng-Prusoff; mean±SD of three determinations; read-out: MT2 K i
T1 sequence (P49286 1-362): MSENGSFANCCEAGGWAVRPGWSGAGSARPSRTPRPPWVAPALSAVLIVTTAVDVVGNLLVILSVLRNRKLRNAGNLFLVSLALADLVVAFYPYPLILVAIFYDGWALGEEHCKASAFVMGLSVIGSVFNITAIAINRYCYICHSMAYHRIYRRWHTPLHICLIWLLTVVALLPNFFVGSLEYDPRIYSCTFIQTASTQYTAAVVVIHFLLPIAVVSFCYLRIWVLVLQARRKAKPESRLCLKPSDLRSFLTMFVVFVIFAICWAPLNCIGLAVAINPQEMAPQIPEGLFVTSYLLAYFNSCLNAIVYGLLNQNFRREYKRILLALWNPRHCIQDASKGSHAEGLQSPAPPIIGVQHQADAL
Experimental: (§5) The in vitro pharmacology experiments were conducted at Cerep (Celle‐Lévescault, France) following radioligand binding and cellular functional assays developed elsewhere.[60, 61, 62]
(§6) After incubation, the % of radioligand binding inhibition was determined via a scintillation counting method. The radioligand binding experiments were performed in triplicate. IC50 values were determined by nonlinear regression analysis of the competition curves using Hill equation curve fitting. The pK i values were calculated from the IC50 values in accordance with the Cheng‐Prusoff equation.[28]

[4] = Metabolic stability in human liver microsomes; type: in vitro ADME; conditions: for CLi Human LM (intrinsic clearance) / half-life at 5 μM: human liver microsomes 1 mg protein/mL, 5 μM compound, mean±SD; for CLi Human LM (intrinsic clearance): 37 °C; for half-life at 5 μM: NADPH-regenerating system, pH 7.4, 37 °C, read-out: t 1/2 Human LM
Experimental: as §1, §2, §3, §4

[5] = target: human MT1 receptors (Homo sapiens, UniProt P48039); test: Radioligand binding, 2-[125I]iodomelatonin competition at MT1; conditions: cloned human MT1 in CHO cells; from IC50 by Cheng-Prusoff; mean±SD of three determinations; read-out: MT1 K i
Chain of human MT1 receptors (P48039 whole entry): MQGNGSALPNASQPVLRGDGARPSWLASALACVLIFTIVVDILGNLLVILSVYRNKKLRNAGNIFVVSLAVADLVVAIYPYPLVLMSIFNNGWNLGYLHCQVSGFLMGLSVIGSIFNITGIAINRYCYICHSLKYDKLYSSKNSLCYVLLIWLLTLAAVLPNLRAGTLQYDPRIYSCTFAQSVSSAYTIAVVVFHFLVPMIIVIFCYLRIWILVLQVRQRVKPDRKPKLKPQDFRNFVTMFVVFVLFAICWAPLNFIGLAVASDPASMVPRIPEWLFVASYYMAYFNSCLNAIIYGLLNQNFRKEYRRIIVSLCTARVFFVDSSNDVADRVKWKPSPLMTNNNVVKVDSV
Experimental: as §5, §6

[6] = Thermodynamic solubility, shake flask method; type: physicochemical; conditions: thermodynamic from solid, room temperature overnight, mean±SD, triplicate
Experimental: Thermodynamic solubility values were measured in two different buffers (pH 1.0; pH 7.4) by the shake flask method.[65] 1 mg of each compound was placed in 1 mL of appropriate buffer and shaken at room temperature overnight. The resulting suspension was centrifuged (10 min, 10000 g, 20 °C) and the supernatant analyzed by HPLC‐UV. Solubility values were interpolated from calibration curves prepared from concentrated DMSO stock solutions of each compound. Reported solubility values are the mean of three measurements±standard deviation.
It consisted of a LC‐10ADvp solvent delivery module, a 20 μL Rheodyne sample injector (Rheodyne LLC, Rohnert Park, CA, USA) and a SPD‐10Avp UV‐VIS detector. PeakSimple 2.83 software was employed for data acquisition and HPLC peak integration. […] Elution conditions were optimized for each compound at a flow rate of 1 mL min^−1 employing mobile phases consisting of water and acetonitrile at different percentages, while UV detection was set at λ = 254 nm.

[7] = buffer pH 1.0, simulated gastric fluid, pH 1.0 buffer, read-out: Solubility pH 1.0
[8] = buffer pH 7.4, aqueous buffer, pH 7.4 buffer, read-out: Solubility pH 7.4

Structure (SMILES): COc1cccc(N(CCNC(C)=O)c2ccccc2)c1 [Compound 2, N‐{2‐[(3‐methoxyphenyl)phenylamino]ethyl}acetamide, reference compound]
- logD [1]: 2.93 ± 0.01
- CLi Rat LM (intrinsic clearance) [2]: 408±85 μL min^−1 mg prot^−1
- half-life at 5 μM [2]: 1.7 ± 0.4 min
- Ki [3]: 0.29 ± 0.1 nM
- CLi Human LM (intrinsic clearance) [4]: 17±1 μL min^−1 mg prot^−1
- half-life at 5 μM [4]: 40.8 ± 1.1 min
- Ki [5]: 1.6 ± 0.14 nM
- solubility [6, 7]: 125 ± 5 µg/mL (≈ 440 µM)
- solubility [6, 8]: 104 ± 5 µg/mL (≈ 366 µM)

Structure (SMILES): CC(=O)NCCN(c1ccc(F)cc1)c1cccc(Br)c1 [Compound 3, N‐{2‐[(3‐bromophenyl)‐(4‐fluorophenyl)amino]ethyl}acetamide, reference compound]
- logD [1]: 3.84 ± 0.05
- CLi Rat LM (intrinsic clearance) [2]: 38.1±6.0 μL min^−1 mg prot^−1
- half-life at 5 μM [2]: 18.2 ± 2.8 min
- Ki [3]: 1.4 ± 0.08 nM
- CLi Human LM (intrinsic clearance) [4]: 9.7±0.5 μL min^−1 mg prot^−1
- half-life at 5 μM [4]: 71.2 ± 3.4 min
- Ki [5]: > 100 nM
- solubility [6, 7]: 6.9 ± 0.1 µg/mL (≈ 19.6 µM)
- solubility [6, 8]: 5.1 ± 0.2 µg/mL (≈ 14.5 µM)

Structure (SMILES): COc1cccc(N(CCNC(N)=O)c2ccccc2)c1 [Compound 6 a, 1‐{2‐[(3‐Methoxyphenyl)phenylamino]ethyl}urea]
- logD [1]: 2.65 ± 0.02
- CLi Rat LM (intrinsic clearance) [2]: 44.2±1.0 μL min^−1 mg prot^−1
- half-life at 5 μM [2]: 15.7 ± 0.4 min
- Ki [3]: 10 ± 0.13 nM
- CLi Human LM (intrinsic clearance) [4]: 9.1±1.5 μL min^−1 mg prot^−1
- half-life at 5 μM [4]: 77.5 ± 13.4 min
- Ki [5]: > 100 nM
- solubility [6, 7]: 364 ± 3.7 µg/mL (≈ 1280 µM)
- solubility [6, 8]: 311.4 ± 2.6 µg/mL (≈ 1090 µM)

Structure (SMILES): CCNC(=O)NCCN(c1ccccc1)c1cccc(OC)c1 [Compound 6 b, 1‐Ethyl‐3‐{2‐[(3‐methoxyphenyl)phenylamino]ethyl}urea]
- logD [1]: 3.3 ± 0.02
- CLi Rat LM (intrinsic clearance) [2]: 98.1±6.8 μL min^−1 mg prot^−1
- half-life at 5 μM [2]: 7.1 ± 0.5 min
- Ki [3]: 0.65 ± 0.03 nM
- CLi Human LM (intrinsic clearance) [4]: 45.1±3.0 μL min^−1 mg prot^−1
- half-life at 5 μM [4]: 15.4 ± 1 min
- Ki [5]: 20 ± 0.45 nM
- solubility [6, 7]: 14.9 ± 0.6 µg/mL (≈ 47.5 µM)
- solubility [6, 8]: 10.2 ± 1.7 µg/mL (≈ 32.5 µM)

Structure (SMILES): COc1cccc(N(CCNC(C)=O)CCc2ccccc2)c1 [Compound 12, N ‐{2‐[(3‐Methoxyphenyl)(phenethyl)amino]ethyl}acetamide]
- logD [1]: 3.44 ± 0.02
- CLi Rat LM (intrinsic clearance) [2]: 247.3±34.2 μL min^−1 mg prot^−1
- half-life at 5 μM [2]: 2.9 ± 0.5 min
- Ki [3]: 2.1 ± 0.15 nM
- CLi Human LM (intrinsic clearance) [4]: 96.7±6.3 μL min^−1 mg prot^−1
- half-life at 5 μM [4]: 7.2 ± 0.5 min
- Ki [5]: > 100 nM
- solubility [6, 7]: > 1000 µg/mL
- solubility [6, 8]: 110 ± 6.9 µg/mL (≈ 351 µM)

Structure (SMILES): COc1cccc(N(CCNC(C)=O)c2ccncc2)c1 [Compound 13, N ‐{2‐[(3‐Methoxyphenyl)(pyridine‐4‐yl)amino]ethyl}acetamide]
- logD [1]: 0.41 ± 0.01
- Ki [3]: > 100 nM
- Ki [5]: > 100 nM
- solubility [6, 7]: > 1000 µg/mL
- solubility [6, 8]: 1020 ± 93.7 µg/mL (≈ 3570 µM)

Structure (SMILES): COc1cccc(N(CCNC(C)=O)c2cccc(O)c2)c1 [Compound 15, N ‐{2‐[(3‐Hydroxyphenyl)(3‐methoxyphenyl)amino]ethyl} acetamide]
- logD [1]: 2.42 ± 0.02
- CLi Rat LM (intrinsic clearance) [2]: 217.3±44.6 μL min^−1 mg prot^−1
- half-life at 5 μM [2]: 3.3 ± 0.6 min
- increase of rat microsomal stability compared to UCM765 ([2]; rat liver microsomes, versus UCM765): approximately 1.5 fold
- Ki [3]: 1.4 ± 0.15 nM
- CLi Human LM (intrinsic clearance) [4]: 10.5±0.4 μL min^−1 mg prot^−1
- half-life at 5 μM [4]: 66.2 ± 2.8 min
- increase of human microsomal stability compared to UCM765 ([4]; human liver microsomes, versus UCM765): approximately 1.5 fold
- Ki [5]: 53 ± 1.6 nM
- solubility [6, 7]: 95.9 ± 4.2 µg/mL (≈ 319 µM)
- solubility [6, 8]: 119 ± 2.8 µg/mL (≈ 395 µM)

Structure (SMILES): COc1ccc(-c2ccccc2)c(N(C)CCNC(C)=O)c1 [Compound 18, N ‐{2‐[(4‐Methoxy‐[1,1’‐biphenyl]‐2‐yl)(methylamino)]ethyl}acetamide]
- logD [1]: 3.11 ± 0.02
- CLi Rat LM (intrinsic clearance) [2]: 468.9±12.9 μL min^−1 mg prot^−1
- half-life at 5 μM [2]: 1.5 ± 0.1 min
- Ki [3]: 1.7 ± 0.13 nM
- CLi Human LM (intrinsic clearance) [4]: 61.9±3.8 μL min^−1 mg prot^−1
- half-life at 5 μM [4]: 11.2 ± 0.7 min
- Ki [5]: 32 ± 0.8 nM
- solubility [6, 7]: > 1000 µg/mL
- solubility [6, 8]: 340 ± 9.7 µg/mL (≈ 1140 µM)
